In US8048883B2, “Polymorphic form of imatinib mesylate and a process for its preparation” (Natco Pharma Limited, priority 2004, dated 2011):
“Also recorded” adds a separate entry of the source. Like-named read-outs stand apart in the source and are kept apart here.

Legend:
Assay type in all cases: physicochemical
Hygroscopicity = assay: Hygroscopicity
[1] = Flow properties / suitability for solid dosage forms
[2] = Comparative dissolution of Imatinib mesylate capsules 100 mg (α2 and β-forms)
[3] = Stability of the polymorphic form (metastable or stable); conditions: room temperature and higher temperatures up to 120° C.
[4] = Stability of α2 form under accelerated stress conditions in bulk and formulated capsule, XRPD
[5] = Heat stability of α2-crystal form, examined by XRPD; conditions: for Polymorph form detected after heating: XRPD
From the text: Pure α2-crystal polymorph 1 gm prepared by the process described in Example 1 was taken in a boiling test tube and heated gradually in oil bath the substance was examined by XRPD. The results are tabulated below

[6] = 0 Month at 40 ± 2° C./75 ± 5% RH
[7] = 1 Month at 40 ± 2° C./75 ± 5% RH
[8] = 2 Months at 40 ± 2° C./75 ± 5% RH
[9] = 3 Months at 40 ± 2° C./75 ± 5% RH
[10] = 6 Months at 40 ± 2° C./75 ± 5% RH

Hygroscopicity (Hygroscopicity): Non-hygroscopic
Flow properties of the formulations, α2 form compared with β-form ([1]; same excipient composition): comparable
Flow properties ([1]; suitability for pharmaceutical solid dosage forms): Found to be well suited for
Dissolution of the capsule formulation compared with the β-form formulation [2]: better dissolution characteristics
Dissolution in capsule formulation ([2]; during 30 min): Dissolution of more than 95%
Dissolution of the capsule formulation compared with the β-form formulation ([2]; listed as α2-form): comparable and even better
Stability ([3]; listed as α2): stable
Stability ([3]; listed as α2-form): stable
Polymorph content of bulk imatinib mesylate, polymorph form detected [4, 6]: α2 form
Polymorph content of imatinib mesylate in formulated capsule, polymorph form detected [4, 6]: α2 form
Polymorph content of bulk imatinib mesylate, polymorph form detected [4, 7]: α2 form
Polymorph content of imatinib mesylate in formulated capsule, polymorph form detected [4, 7]: α2 form
Polymorph content of bulk imatinib mesylate, polymorph form detected [4, 8]: α2 form
Polymorph content of imatinib mesylate in formulated capsule, polymorph form detected [4, 8]: α2 form
Polymorph content of bulk imatinib mesylate, polymorph form detected [4, 9]: α2 form
Polymorph content of imatinib mesylate in formulated capsule, polymorph form detected [4, 9]: α2 form
Polymorph content of bulk imatinib mesylate, polymorph form detected [4, 10]: α2 form
Polymorph content of imatinib mesylate in formulated capsule, polymorph form detected [4, 10]: α2 form
Conversion to β-polymorphic form in capsule ([4]; about 40° C. and about 75% relative humidity for 6 months): does not show any significant conversion
Conversion over time to form β ([4]; bulk form or dosage form, about 40° and about 75% relative humidity, at least about 6 months): does not substantially convert
Stability at normal and accelerated stress conditions ([4]; in bulk and formulated capsule form): stable
Polymorph form detected after heating ([5]; 110° C., 2 hours): α2 form
Polymorph form detected after heating ([5]; 110° C., 4 hours): α2 form
Polymorph form detected after heating ([5]; 120° C., 2 hours): α2 form
Polymorph form detected after heating ([5]; 120° C., 4 hours): α2 form
Polymorph form detected after heating ([5]; 120° C., 6 hours): α2 form
SMILES: Cc1ccc(NC(=O)c2ccc(CN3CCN(C)CC3)cc2)cc1Nc1nccc(-c2cccnc2)n1 [α2 form, N-{5-[4-(4-methylpiperazino-methyl)-benzoylamido]-2-methylphenyl}-4-(3-pyridyl) 2-pyrimidine-amine]
Heat stability ([5]; 120° C. for 6 hours): non-metastable and stable; also recorded: fairly stable to heat
